Reference: patent US10060907B2, “Redoxindicators” (priority 2014, dated 2018)
Read-outs that look alike come from different tables or passages of the source.

Assays:
Solubility in water = type: physicochemical
[1] = Reaction of an indicator with NADH, UV/Vis of the reduced form; type: physicochemical; details: for UV-Vis λmax after reduction with NADH: water; for UV/Vis reduced form, λmax after reduction with NADH: 50 mM phosphate buffer pH = 7
Procedure: The following were mixed in a cuvette: 50 μL of 10 mM solution of an indicator (1-methyl-3-[(E)-2-(1,3,3-trimethyl-3H-indolium-2-yl)ethenyl]quinolinium iodide trifluoromethanesulfonate) in distilled water, 950 μL of 50 mM phosphate buffer pH 7, 2 μL of 10 mM NADH solution in distilled water. A UV/Vis spectrum (400-1000 nm) was recorded every 7.5 sec for a 1 min after addition of NADH (resolution 2 nm) (FIG. 1). No further color change could be measured after 52.5 sec.

[2] = Cyclic voltammetry (CV) studies of the redoxindicators; type: physicochemical; details: vs Ag/AgCl, 0.9% NaCl at pH 7, phosphate buffer, Au working electrode, scan rate 100 mVs^−1
Procedure: The CVs of the compounds synthesized in example 6-7 were recorded vs. the Ag/AgCl reference electrode in a phosphate buffer pH 7 (Table 4).
E/mV vs Ag/AgCl, 0.9% NaCl at pH 7, phosphate buffer, Au working electrode, scan rate 100 mVs^−1

[3] = Evaluation of the reaction rates with NADH; details: for Colour change of the solution treated with NADH: NADH (disodium salt); for Turnover rates with NADH compared with ascorbate: NADH vs ascorbate
Procedure: (§1) Two solutions of the redoxindicator 1-methyl-6-((E)-3-oxo-3-phenyl-propenyl)-quinolinium methosulfate (5.00 mg, 0.013 mmol) in 1.00 ml water were each treated with an excess of NADH (disodium salt) or sodium ascorbate, respectively. […] After a few minutes, a larger amount of an orange precipitate was obtained, probably the insoluble dihydrochinoline. […] Even after 16 h no precipitate was found.
(§2) Two solutions of the redoxindicators 1-methyl-3-[(E)-2-(1,3,3-trimethyl-3H-indolium-2-yl)ethenyl]quinolinium iodide trifluoromethanesulfonate (0.005 mmol) in 1.00 ml of 50 mM phosphate buffer pH 7 were each treated with 2 μL of 10 mM NADH (disodium salt) or sodium ascorbate solutions in distilled water, respectively. The absorbance at 535 nm was measured in relation to time (FIG. 3).

[4] = Evaluation of the reaction rates with ascorbate; details: sodium ascorbate
Procedure: as §1, §2

HEK-293 cells = assay: Cell viability testing, confocal fluorescence microscopy; type: cell-based; details: 20 μM
Procedure: Viable HEK-293 cells and 4% paraformaldehyde killed HEK-293 cells were incubated with 1-methyl-3-[(E)-2-(1,3,3-trimethyl-3H-indolium-2-yl)ethenyl]quinolinium iodide trifluoromethanesulfonate (20 μM) in 10 mM PBS pH 7 at 37 C. Confocal fluorescence microscope images were recorded at 611 nm using excitation at 561 nm. […] The resulting cells retained viability for at least 24 h.

[5] = Fluorometric determination of NADH; details: 20 μM indicator, 4 μM NADH, 10 mM PIPES pH 7, excitation at 535 nm
Procedure: The following were mixed in a cuvette: 2 μL of 10 mM solution of an indicator (1-methyl-3-[(E)-2-(1,3,3-trimethyl-3H-indolium-2-yl)ethenyl]quinolinium iodide trifluoromethanesulfonate) in distilled water, 1000 μL of 10 mM PIPES buffer pH 7, 0.5-4 μL of 1 mM NADH solution in distilled water. The mixture was incubated for 30 min at room temperature. Fluorescence (550-800 nm) was recorded using excitation at 535 nm. (FIG. 10, 11).

[6] = Evaluation of extinction coefficient under pseudo-first-order reaction conditions; type: physicochemical; details: 535 nm, 50 mM phosphate buffer pH 7, from slope of ΔAbs vs initial NADH
Procedure: The following were mixed in a cuvette: 100 μL of 10 mM solution of 1-methyl-3-[(E)-2-(1,3,3-trimethyl-3H-indolium-2-yl)ethenyl]quinolinium iodide trifluoromethanesulfonate in distilled water, 900 μL of 50 mM phosphate buffer pH 7, 1-3 μL of 10 mM NADH in distilled water. Change in absorbance at 535 nm was recorded after 5 min, when no further color change could be measured (FIG. 3, 9).
This ε value is nine times greater than those of the reduced form of MTT (Czerlinski, G. H.; et al; Journal of Biochemical and Biophysical Methods 1988, 15, 241).

[7] = test system: glucose dehydrogenase 2 (GlucDH2); assay: Determination of glucose with GlucDH2/NAD and an indicator; type: biochemical; details: 0.5 mM indicator, NAD/GlucDH2, glucose 385 μM, 100 mM phosphate buffer pH 7
Procedure: The following were mixed in a cuvette: 500 μL of 1.0 mM solution of an indicator (1-methyl-6-[(E)-2-(1,3,3-trimethyl-3H-indolium-2-yl)vinyl]quinolinium iodide trifluoromethanesulfonate) in 100 mM phosphate buffer pH 7, 500 μL of glucose dehydrogenase 2 (GlucDH2) solution (in 100 mM phosphate buffer pH 7 containing 4.0 mM NAD^+) at a concentration of 491 U/ml, 40 μL of 10 mM solution of glucose in distilled water. A UV/Vis spectrum (300-1000 nm) was recorded every 1 min for a 10 min after addition of glucose (resolution 1 nm) (FIG. 4).

For `C[N+]1=C(/C=C/c2ccc[n+](C)c2)C(C)(C)c2ccccc21`, the solubility (Solubility in water) was ≥ 114 mM.
In the case of `C[N+]1=C(/C=C/c2ccc(-c3ccc(/C=C/C4=[N+](C)c5ccccc5C4(C)C)c[n+]3C)[n+](C)c2)C(C)(C)c2ccccc21.O=S(=O)([O-])C(F)(F)F.O=S(=O)([O-])C(F)(F)F.[I-].[I-]`, the solubility (Solubility in water) is reported as ≥ 15 mM.
In the case of `CC[n+]1cc(/C=C/C2=[N+](C)c3ccccc3C2(C)C)cc2ccccc21`, the solubility (Solubility in water) is reported as ≥ 4 mM.
In the case of `CC[n+]1cc(/C=C2\CCC[N+]3=C2C(C)(C)c2ccccc23)cc2ccccc21`, the solubility (Solubility in water; Cl^− form) is reported as ≥ 0.3 mM.
In the case of `C[N+]1=C(/C=C/c2c[n+](C)cc3ccccc23)C(C)(C)c2ccccc21`, the solubility (Solubility in water) is reported as ≥ 25 mM.
In the case of `C[N+]1=C(/C=C/c2cccc3c2ncc[n+]3C)C(C)(C)c2ccccc21.O=S(=O)([O-])C(F)(F)F.[I-]`, the UV-Vis λmax after reduction with NADH [1] is reported as 535 nm and the solubility (Solubility in water) is reported as ≥ 9 mM.
With `C[N+]1=C(/C=C/c2cccc3c2nc2ccccc2[n+]3C)C(C)(C)c2ccccc21.O=S(=O)([O-])C(F)(F)F.[I-]` the solubility (Solubility in water) was ≥ 4 mM.
For `C[N+]1=C(/C=C/c2ccc3c(c2)nc2ccccc2[n+]3C)C(C)(C)c2ccccc21.O=S(=O)([O-])C(F)(F)F.[I-]`, the “UV-Vis λmax after reduction with NADH” value [1] was “LC-MS m/z 379.3 (M^+) HRMS m/z 378.1970 ([M − H]^+) UV-Vis (water) after reduction with NADH: λmax 740 nm;”.
In the case of `C[N+]1=C(/C=C/c2ccc[n+](C)c2)C(C)(C)c2ccccc21.O=S(=O)([O-])C(F)(F)F.[I-]`, the Reduction potential [2] is reported as −564 mV.
`CC[n+]1cc(/C=C/C2=[N+](C)c3ccccc3C2(C)C)cc2ccccc21.O=S(=O)([O-])C(F)(F)F.[I-]` showed a Reduction potential [2] of −524 mV.
Work on `C[N+]1=C(/C=C/c2c[n+](C)cc3ccccc23)C(C)(C)c2ccccc21.O=S(=O)([O-])C(F)(F)F.[I-]` yielded a Reduction potential [2] of −424 mV.
Work on `CC[n+]1cc(/C=C/C2=[N+](C)c3ccccc3C2(C)C)c2ccccc2c1.O=S(=O)([O-])C(F)(F)F.[I-]` yielded a Reduction potential [2] of −454 mV.
For `CCOc1cccc2c1nc1c(/C=C/C3=[N+](C)c4ccccc4C3(C)C)cccc1[n+]2C.[Cl-].[Cl-]` [9-ethoxy-10-methyl-1-[(E)-2-(1,3,3-trimethyl-3H-indolium-2-yl)vinyl]phenazinium], the solubility (Solubility in water) was ≥ 7 mM.
With `COS(=O)(=O)[O-].C[n+]1cccc2cc(/C=C/C(=O)c3ccccc3)ccc21` [MOPPQ, 1-Methyl-6-((E)-3-oxo-3-phenyl-propenyl)-quinolinium methosulfate] the “Colour change of the solution treated with NADH” value [3] was “changed rapidly from nearly colorless to orange”, the “Turnover rates with NADH compared with ascorbate” value [3] was “much higher than with ascorbate” and the “Colour change of the solution treated with ascorbate” value [4] was “showed only a pale orange color”.
For `C[N+]1=C(/C=C/c2cc3ccccc3[n+](C)c2)C(C)(C)c2ccccc21.O=S(=O)([O-])C(F)(F)F.[I-]` [XXIV, 1-methyl-3-[(E)-2-(1,3,3-trimethyl-3H-indolium-2-yl)ethenyl]quinolinium iodide trifluoromethanesulfonate], the “Fluorescence intensity, viable vs dead HEK-293 cells” value (HEK-293 cells) was “much higher in viable cells than in dead cells”, the “Fluorescence intensity in viable HEK-293 cells” value (HEK-293 cells; 10 mM PBS pH 7, 37 C, 611 nm, excitation 561 nm) was “fluorescence intensity was enhanced” and the “Cellular uptake in viable HEK-293 cell” value (HEK-293 cells; confocal image) was “showed cellular uptake”. For the same compound, the “Fluorescence intensity in paraformaldehyde killed HEK-293 cells” value (HEK-293 cells; 4% paraformaldehyde killed cells, 10 mM PBS pH 7, 37 C) was “did not show enhancement in fluorescence intensity”, the “Time for which treated cells retained viability” value (HEK-293 cells; viable HEK-293 cells) was “at least 24 h” and the “Colour change of the solution treated with NADH” value [3] was “changed rapidly from nearly colorless to pink”. The “Turnover rates with NADH compared with ascorbate” value [3] was “much higher than with ascorbate”, the “Fluorescence emission λmax after adding NADH” value [5] was 560 nm and the “Extinction coefficient ε of the reduced form” value [6] was 69.3 mM⁻¹ cm⁻¹. The “Time after addition of NADH after which no further color change could be measured” value ([1]; 0.5 mM indicator, 20 μM NADH, 50 mM phosphate buffer pH 7) was 52.5 s, the “UV/Vis reduced form, λmax after reduction with NADH” value [1] was 535 nm and the “Colour change of the solution treated with ascorbate” value [4] was “did not change color”. The solubility (Solubility in water) was ≥ 10 mM.
For `C[N+]1=C(/C=C/c2ccc3c(ccc[n+]3C)c2)C(C)(C)c2ccccc21.O=S(=O)([O-])C(F)(F)F.[I-]` [drawing 35, 1-methyl-6-[(E)-2-(1,3,3-trimethyl-3H-indolium-2-yl)vinyl]quinolinium iodide trifluoromethanesulfonate], the “UV/Vis reduced form, λmax after reduction with NADH” value [1] was 517 nm, the “Absorbance λmax after adding glucose” value [7] was 516 nm and the solubility (Solubility in water) was ≥ 15 mM.
In the case of `C[N+]1=C(/C=C/c2cc3ccccc3[n+](C)c2)C(C)(C)c2ccccc21.O=S(=O)([O-])C(F)(F)F.[I-]` [drawing 50], the Reduction potential [2] is reported as −534 mV.
`C[N+]1=C(/C=C/c2ccc3c(ccc[n+]3C)c2)C(C)(C)c2ccccc21.O=S(=O)([O-])C(F)(F)F.[I-]` [drawing 52] showed a Reduction potential [2] of −634 mV.
